Test results: ChEMBL document CHEMBL5727778, “Pyrimidine derivative and use thereof” (2020)

Molecular target: ALK tyrosine kinase receptor (Homo sapiens, UniProt Q9UM73)
Assay: Inhibition Assay: 1× Kinase Buffer 50 mM HEPES. pH 7.5 0.0015% Brij-35 10 mM MgCl2 2 mM DTT 2) stop buffer 100 mM HEPES, pH 7.5 0.015% Brij-35 0.2% Coating Reagent #3 50 mM EDTAPrepare a Compound Solution to be Tested Step 2.1 Dilute the compound to 50× of the final desired highest inhibitor concentration in reaction by 100% DMSO. Transfer 100 μl of this compound dilution to a well in a 96-well plate. For example, if desired highest inhibitor concentration is 1 μM, then prepare 50 μM of compound DMSO solution in this step.

Chain of ALK tyrosine kinase receptor (Q9UM73 whole entry): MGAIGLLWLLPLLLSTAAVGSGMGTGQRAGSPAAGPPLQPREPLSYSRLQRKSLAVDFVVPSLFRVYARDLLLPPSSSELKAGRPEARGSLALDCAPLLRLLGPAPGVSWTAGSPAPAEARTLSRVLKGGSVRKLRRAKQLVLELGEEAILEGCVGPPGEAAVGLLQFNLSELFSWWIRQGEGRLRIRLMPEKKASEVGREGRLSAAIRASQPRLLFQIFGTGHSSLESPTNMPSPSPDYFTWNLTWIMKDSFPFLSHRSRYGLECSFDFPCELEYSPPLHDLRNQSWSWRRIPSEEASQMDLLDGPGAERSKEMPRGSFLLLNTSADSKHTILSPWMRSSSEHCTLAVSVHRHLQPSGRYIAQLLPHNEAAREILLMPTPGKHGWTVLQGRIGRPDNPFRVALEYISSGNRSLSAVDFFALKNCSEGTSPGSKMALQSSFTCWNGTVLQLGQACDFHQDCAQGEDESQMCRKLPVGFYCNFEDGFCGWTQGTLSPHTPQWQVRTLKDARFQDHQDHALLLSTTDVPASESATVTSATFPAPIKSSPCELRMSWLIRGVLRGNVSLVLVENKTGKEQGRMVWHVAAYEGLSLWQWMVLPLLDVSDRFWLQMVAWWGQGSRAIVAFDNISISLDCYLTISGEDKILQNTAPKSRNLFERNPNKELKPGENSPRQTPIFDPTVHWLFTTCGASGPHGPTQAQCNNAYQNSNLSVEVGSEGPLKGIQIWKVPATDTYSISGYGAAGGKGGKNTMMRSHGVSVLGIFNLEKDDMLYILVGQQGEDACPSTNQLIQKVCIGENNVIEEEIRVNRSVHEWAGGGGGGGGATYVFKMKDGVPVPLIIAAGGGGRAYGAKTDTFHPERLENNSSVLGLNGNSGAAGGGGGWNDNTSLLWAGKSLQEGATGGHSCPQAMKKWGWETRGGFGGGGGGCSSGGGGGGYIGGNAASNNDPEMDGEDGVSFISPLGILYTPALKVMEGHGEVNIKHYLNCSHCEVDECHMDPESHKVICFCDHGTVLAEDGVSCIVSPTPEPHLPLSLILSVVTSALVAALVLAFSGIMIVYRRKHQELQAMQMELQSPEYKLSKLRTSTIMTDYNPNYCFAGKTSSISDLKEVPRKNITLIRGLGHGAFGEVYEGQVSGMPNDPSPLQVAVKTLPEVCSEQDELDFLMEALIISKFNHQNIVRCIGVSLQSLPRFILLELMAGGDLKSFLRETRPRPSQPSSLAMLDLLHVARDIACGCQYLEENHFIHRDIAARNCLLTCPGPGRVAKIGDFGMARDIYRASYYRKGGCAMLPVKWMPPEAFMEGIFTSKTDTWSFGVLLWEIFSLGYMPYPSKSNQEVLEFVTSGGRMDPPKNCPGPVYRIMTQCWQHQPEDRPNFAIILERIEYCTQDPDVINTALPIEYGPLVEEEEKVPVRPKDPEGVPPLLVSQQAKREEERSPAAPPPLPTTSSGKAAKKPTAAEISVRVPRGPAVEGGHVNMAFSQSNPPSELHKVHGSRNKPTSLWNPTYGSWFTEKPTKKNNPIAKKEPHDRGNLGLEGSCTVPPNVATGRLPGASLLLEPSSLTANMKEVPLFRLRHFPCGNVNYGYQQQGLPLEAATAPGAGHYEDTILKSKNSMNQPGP

Row | Structure (SMILES) | IC50 [nM]
1 | COc1cc(N2CCC(N3CCOCC3)CC2)ccc1Nc1ncc(Cl)c(Nc2ccsc2S(=O)(=O)C(C)C)n1 | < 1
2 | COc1cc(N2CCOCC2)ccc1Nc1ncc(Cl)c(Nc2ccsc2S(=O)(=O)C(C)C)n1 | < 1
3 | COc1cc(N2CCC(N(C)C)CC2)ccc1Nc1ncc(Cl)c(Nc2ccsc2S(=O)(=O)C(C)C)n1 | < 1
4 | COc1cc(N2CCC(O)CC2)ccc1Nc1ncc(Cl)c(Nc2ccsc2S(=O)(=O)C(C)C)n1 | < 1
5 | COc1cc(N2CCC(N(C)C)CC2)ccc1Nc1ncc(Cl)c(Nc2ccccc2S(=O)(=O)C(C)C)n1 | < 1
6 | COc1cc(N2CCN(C)CC2)ccc1Nc1ncc(Cl)c(Nc2ccccc2S(=O)(=O)C(C)C)n1 | < 1
7 | COc1cc(N2CCC(N3CCC(N(C)C)CC3)CC2)ccc1Nc1ncc(Cl)c(Nc2ccccc2S(=O)(=O)C(C)C)n1 | < 1
8 | CC(C)S(=O)(=O)c1ccccc1Nc1nc(Nc2ccc(N3CCC(N(C)C)CC3)cc2OC(F)F)ncc1Cl | < 1
9 | COc1cc(N2CCN(C)CC2)ccc1Nc1ncc(Cl)c(Nc2ccsc2S(=O)(=O)C(C)C)n1 | < 1
